Some test systems named below: A498 renal; A549 NSCLC; COLO 205 colon; HL-60(TB) leukemia; HOP-62 NSCLC; HOP-92 NSCLC; HT29 colon; MCF7 breast; MDA-MB-435; MOLT-4 leukemia; NCI-H460 lung; NCI-H522 lung; OVCAR-8 ovarian; PC-3 prostate; SF-268 CNS; SW-620 colon; TK-10 renal.
Common to all, as to assay: NCI anticancer screen, dose series, 48 h

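Briefly, cells in 96-well plates were exposed to five compound concentrations for 48 h, and endpoints were estimated by linear interpolation. TGI is the concentration that stops growth completely.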

Regarding `COC1(OC)C2C=CC1C([C@](C)(N)CO)C2` (some centres not stated), the TGI with A498 renal, in the experiment on A549 NSCLC, in the experiment on COLO 205 colon, in the experiment on HL-60(TB) leukemia, in the experiment with HOP-62 NSCLC and in the experiment with HOP-92 NSCLC was more than 100 µM each time. The TGI in the experiment on HT29 colon, in the experiment with MCF7 breast, in the experiment on MDA-MB-435, in the experiment with MOLT-4 leukemia, with NCI-H460 lung and in the experiment with NCI-H522 lung was more than 100 µM in each case. In addition, the TGI with OVCAR-8 ovarian, with PC-3 prostate, in the experiment on SF-268 CNS, in the experiment on SW-620 colon and in the experiment on TK-10 renal was more than 100 µM each time.

Consider `CC[C@]1(Cc2ccc(OC)c(OC)c2)C=[N+]([O-])O[C@H](OCc2ccccc2)[C@@H]1OC(C)=O`, for which the TGI is more than 100 µM with A498 renal; more than 100 µM in the experiment with A549 NSCLC; 34.5 µM with COLO 205 colon; 36.3 µM in the experiment with HL-60(TB) leukemia; more than 100 µM with HOP-62 NSCLC; 77.3 µM in the experiment on HOP-92 NSCLC. The TGI in the experiment on HT29 colon was 79.9 µM; in the experiment on MCF7 breast, more than 100 µM; in the experiment on MDA-MB-435 it was more than 100 µM; in the experiment with MOLT-4 leukemia, 27.3 µM; in the experiment on NCI-H460 lung, more than 100 µM; in the experiment on NCI-H522 lung, 28.5 µM. In addition, the TGI was more than 100 µM with OVCAR-8 ovarian; 64.3 µM in the experiment with PC-3 prostate; 70.9 µM in the experiment on SF-268 CNS; more than 100 µM in the experiment with SW-620 colon; more than 100 µM with TK-10 renal.

Regarding `CCOC(=O)CCc1ccc(NC(=O)/C=C/c2ccc([N+](=O)[O-])o2)cc1`, the TGI was 7.27 µM in the experiment with A498 renal; 15.1 µM in the experiment on A549 NSCLC; 5.29 µM in the experiment with COLO 205 colon; 0.481 µM with HL-60(TB) leukemia; 11 µM in the experiment on HOP-62 NSCLC; 50.7 µM with HOP-92 NSCLC. In addition, the TGI is 3.43 µM in the experiment with HT29 colon; 32.4 µM in the experiment on MCF7 breast; 0.845 µM in the experiment with MDA-MB-435; 0.547 µM with MOLT-4 leukemia; 4.78 µM with NCI-H460 lung; 0.548 µM in the experiment with NCI-H522 lung. The TGI in the experiment with OVCAR-8 ovarian is 2.28 µM; with PC-3 prostate it was more than 29.9 µM; in the experiment with SF-268 CNS it was 7.63 µM; in the experiment with SW-620 colon it was 2.31 µM; with TK-10 renal it was 4.07 µM.

Regarding `Cn1c(N)c(/C=C/C(=O)Oc2ccccc2)c(=O)n(C)c1=O`, the TGI in the experiment with A498 renal is more than 100 µM; with A549 NSCLC, more than 100 µM; in the experiment on COLO 205 colon, more than 100 µM; in the experiment with HL-60(TB) leukemia it was more than 100 µM; with HOP-62 NSCLC, 40.9 µM; in the experiment with HOP-92 NSCLC, 93 µM. Also, the TGI with HT29 colon, with MCF7 breast, in the experiment with MDA-MB-435, in the experiment on MOLT-4 leukemia, in the experiment on NCI-H460 lung and with NCI-H522 lung was more than 100 µM throughout. The TGI with OVCAR-8 ovarian, in the experiment with PC-3 prostate, in the experiment with SF-268 CNS, with SW-620 colon and with TK-10 renal was more than 100 µM throughout.

Regarding `Cc1ccc(S(=O)(=O)NNC(=O)Nc2ccc([N+](=O)[O-])cc2)cc1`, the TGI with A498 renal was more than 100 µM; in the experiment with A549 NSCLC, more than 100 µM; in the experiment with COLO 205 colon, more than 100 µM; in the experiment with HL-60(TB) leukemia, more than 100 µM; in the experiment with HOP-62 NSCLC, 95.4 µM; with HOP-92 NSCLC, more than 100 µM. The TGI in the experiment on HT29 colon is more than 100 µM; in the experiment on MCF7 breast, more than 100 µM; in the experiment on MDA-MB-435 it was more than 100 µM; in the experiment on MOLT-4 leukemia, more than 100 µM; in the experiment with NCI-H460 lung, 87.6 µM; in the experiment on NCI-H522 lung, more than 100 µM. Also, the TGI in the experiment with OVCAR-8 ovarian is 42.3 µM; in the experiment with PC-3 prostate, more than 100 µM; in the experiment on SF-268 CNS it was more than 100 µM; in the experiment on SW-620 colon, more than 100 µM; in the experiment with TK-10 renal, more than 100 µM.

In the case of `C1=Cc2cccc3occ(c23)C=C1`, the TGI was more than 100 µM in the experiment with A498 renal; more than 100 µM with A549 NSCLC; 90.7 µM in the experiment on COLO 205 colon; 48.2 µM in the experiment on HL-60(TB) leukemia; more than 100 µM in the experiment with HOP-62 NSCLC; more than 100 µM with HOP-92 NSCLC. The TGI was more than 100 µM in the experiment with HT29 colon; more than 100 µM with MCF7 breast; more than 100 µM with MDA-MB-435; 79.4 µM with MOLT-4 leukemia; more than 100 µM with NCI-H460 lung; more than 100 µM in the experiment on NCI-H522 lung. Besides, the TGI with OVCAR-8 ovarian, in the experiment on PC-3 prostate, in the experiment on SF-268 CNS, with SW-620 colon and in the experiment with TK-10 renal was more than 100 µM each time.

Values taken from PubChem BioAssay (NCI).
